Results published in patent US12491170B2, “Stable treprostinil prodrugs” (United Therapeutics Corporation, priority 2020, dated 2025).
Like-named read-outs stand apart in the source and are kept apart here.

How the values were obtained:
[1] = rat
[2] = Stability in cryopreserved hepatocytes, rat; details: for AUC: rat
[3] = Stability in cryopreserved hepatocytes, dog; details: for AUC: dog
[4] = Stability in liver microsomes, dog
Protocol: (§1) Mixed-gender human liver microsomes, male Sprague-Dawley rat liver microsomes, and male Beagle dog liver microsomes were purchased from XenoTech. The reaction mixture, minus NADPH, was prepared as described below. […] An aliquot of the reaction mixture (without cofactor) was equilibrated in a shaking water bath at 37° C. for 5 minutes. The reaction was initiated by the addition of cofactor, and the mixture was incubated in a shaking water bath at 37° C. Aliquots (200 μL) were withdrawn at 0, 10, 20, 30, and 60 minutes. Test article samples were immediately combined with 400 μL of ice-cold acetonitrile (ACN) to terminate the reaction. […] The samples were then mixed and centrifuged to precipitate proteins. Aliquots of the supernatant were removed, diluted 1:1 into distilled water containing internal standard, and analyzed by LC-MS/MS against calibration standards prepared in a matched matrix. All samples were analyzed for the dosed prodrugs as well as the drug, treprostinil. The test article concentration was compared to the concentration at time 0 to determine the percent of test article remaining at each time point. Half-lives and clearance were calculated using GraphPad software, fitting to a single-phase exponential decay equation.
(§2) • Liver Microsomes 0.5 mg/mL • NADPH (cofactor) 1 mM • Potassium Phosphate, pH 7.4 100 mM • Magnesium Chloride 5 mM • Test Article 1 μM

[5] = dog
[6] = Stability in liver microsomes, rat
Protocol: as §1, §2

[7] = Stability in liver microsomes, human; details: for AUC: human
Protocol: as §1, §2

[8] = Stability in cryopreserved hepatocytes, human; details: for AUC: human

Row | SMILES | AUC [1] [µmol·min/L] | Trep Concentration (μM) 0 min [2] [µM] | Trep Concentration (μM) 15 min [2] [µM] | Trep Concentration (μM) 30 min [2] [µM] | Trep Concentration (μM) 60 min [2] [µM] | Trep Concentration (μM) 120 min [2] [µM] | AUC [2] [µmol·min/L] | Trep Concentration (μM) 0 min [3] [µM] | Trep Concentration (μM) 15 min [3] [µM] | Trep Concentration (μM) 30 min [3] [µM] | Trep Concentration (μM) 60 min [3] [µM] | Trep Concentration (μM) 120 min [3] [µM] | AUC [3] [µmol·min/L] | Trep Concentration 10 min [4] [µM] | Trep Concentration 20 min [4] [µM] | Trep Concentration 30 min [4] [µM] | Trep Concentration 60 min [4] [µM] | AUC [5] [µmol·min/L] | Trep Concentration 0 min [6] [µM] | Trep Concentration 10 min [6] [µM] | other results
1 | CCCCCC(CCC1C(O)CC2Cc3c(cccc3OCC(=O)O)CC21)OC(=O)c1ccccc1O (stereo not shown) [LXI] | 0.16 | 0 | 0 | 0.00373 | 0.00634 | 0.00941 | 0.65 | 0 | 0 | 0.00299 | 0.00396 | 0.00663 | 0.44 | 0.0115 | 0.0157 | 0.0196 | 0.0259 | 1.09 | 0 | 0 | Trep Concentration 0 min [4]: 0.00725 µM; Trep Concentration 20 min [6]: 0.00316 µM; Trep Concentration 30 min [6]: 0.00337 µM; Trep Concentration 60 min [6]: 0.00402 µM; Trep Concentration 0 min [7]: 0.0209 µM; Trep Concentration 10 min [7]: 0.0312 µM; Trep Concentration 20 min [7]: 0.0361 µM; Trep Concentration 30 min [7]: 0.0389 µM; Trep Concentration 60 min [7]: 0.0332 µM; AUC [7]: 2.05 µmol·min/L; Trep Concentration (μM) 0 min [8]: 0 µM; Trep Concentration (μM) 15 min [8]: 0.0213 µM; Trep Concentration (μM) 30 min [8]: 0.0378 µM; Trep Concentration (μM) 60 min [8]: 0.0556 µM; Trep Concentration (μM) 120 min [8]: 0.0701 µM; AUC [8]: 5.78 µmol·min/L
2 | CCCCCC(CCC1C(O)CC2Cc3c(cccc3OCC(=O)O)CC21)OC(=O)C12CC3CC(CC(C3)C1)C2 (stereo not shown) [LXIX] | 2.65 | 0 | 0.0238 | 0.0421 | 0.0712 | 0.119 | 8.08 | 0.00877 | 0.227 | 0.262 | 0.263 | 0.236 | 28.28 | 0.57 | 0.609 | 0.696 | 0.657 | 38.15 | 0.0251 | 0.0344 | Trep Concentration 0 min [4]: 0.517 µM; Trep Concentration 20 min [6]: 0.0421 µM; Trep Concentration 30 min [6]: 0.0483 µM; Trep Concentration 60 min [6]: 0.0527 µM; Trep Concentration 0 min [7]: 0.321 µM; Trep Concentration 10 min [7]: 0.365 µM; Trep Concentration 20 min [7]: 0.367 µM; Trep Concentration 30 min [7]: 0.36 µM; Trep Concentration 60 min [7]: 0.252 µM; AUC [7]: 19.91 µmol·min/L; Trep Concentration (μM) 0 min [8]: 0 µM; Trep Concentration (μM) 15 min [8]: 0.198 µM; Trep Concentration (μM) 30 min [8]: 0.294 µM; Trep Concentration (μM) 60 min [8]: 0.338 µM; Trep Concentration (μM) 120 min [8]: 0.335 µM; AUC [8]: 34.85 µmol·min/L
3 | CCCCCC(CCC1C(O)CC2Cc3c(cccc3OCC(=O)O)CC21)OC(=O)NCCO (stereo not shown) [LIX] | 0.00 | 0 | 0 | 0 | 0 | 0 | 0.00 | 0 | 0 | 0.00416 | 0.00836 | 0.00907 | 0.74 | 0 | 0 | 0 | 0 | 0.00 | 0 | 0 | Trep Concentration 0 min [4]: 0 µM; Trep Concentration 20 min [6]: 0 µM; Trep Concentration 30 min [6]: 0 µM; Trep Concentration 60 min [6]: 0 µM; Trep Concentration 0 min [7]: 0 µM; Trep Concentration 10 min [7]: 0 µM; Trep Concentration 20 min [7]: 0 µM; Trep Concentration 30 min [7]: 0 µM; Trep Concentration 60 min [7]: 0 µM; AUC [7]: 0.00 µmol·min/L; Trep Concentration (μM) 0 min [8]: 0 µM; Trep Concentration (μM) 15 min [8]: 0 µM; Trep Concentration (μM) 30 min [8]: 0 µM; Trep Concentration (μM) 60 min [8]: 0 µM; Trep Concentration (μM) 120 min [8]: 0 µM; AUC [8]: 0.00 µmol·min/L

Continued, in another order:

Row | AUC [1] [µmol·min/L] | Trep Concentration (μM) 0 min [2] [µM] | Trep Concentration (μM) 15 min [2] [µM] | Trep Concentration (μM) 30 min [2] [µM] | Trep Concentration (μM) 60 min [2] [µM] | Trep Concentration (μM) 120 min [2] [µM] | AUC [2] [µmol·min/L] | Trep Concentration (μM) 0 min [3] [µM] | Trep Concentration (μM) 15 min [3] [µM] | Trep Concentration (μM) 30 min [3] [µM] | Trep Concentration (μM) 60 min [3] [µM] | Trep Concentration (μM) 120 min [3] [µM] | AUC [3] [µmol·min/L] | Trep Concentration 10 min [4] [µM] | Trep Concentration 20 min [4] [µM] | Trep Concentration 30 min [4] [µM] | Trep Concentration 60 min [4] [µM] | AUC [5] [µmol·min/L] | Trep Concentration 0 min [6] [µM] | Trep Concentration 10 min [6] [µM] | SMILES | other results
4 | 0.69 | 0 | 0 | 0.00403 | 0.00545 | 0.00743 | 0.56 | 0 | 0.0142 | 0.00583 | 0.00715 | 0.0129 | 1.05 | 0.0246 | 0.0324 | 0.0375 | 0.0382 | 1.98 | 0.00607 | 0.00792 | CCCCCC(CCC1C(O)CC2Cc3c(cccc3OCC(=O)O)CC21)OC(=O)c1ccc(O)cc1 (stereo not shown) [LXVIII] | Trep Concentration 20 min [6]: 0.0105 µM; Trep Concentration 30 min [6]: 0.0127 µM; Trep Concentration 60 min [6]: 0.0145 µM; Trep Concentration 0 min [7]: 0.201 µM; Trep Concentration 10 min [7]: 0.237 µM; Trep Concentration 20 min [7]: 0.246 µM; Trep Concentration 30 min [7]: 0.252 µM; Trep Concentration 60 min [7]: 0.178 µM; AUC [7]: 13.55 µmol·min/L; Trep Concentration (μM) 0 min [8]: 0 µM; Trep Concentration (μM) 15 min [8]: 0.147 µM; Trep Concentration (μM) 30 min [8]: 0.194 µM; Trep Concentration (μM) 120 min [8]: 0.17 µM; AUC [8]: 20.45 µmol·min/L
5 | 45.96 | 0.365 | 0.581 | 0.531 | 0.482 | 0.431 | 58.02 | 0.0779 | 0.461 | 0.438 | 0.349 | 0.296 | 41.94 | 0.975 | 0.948 | 0.945 | 0.86 | 55.49 | 0.779 | 0.791 | CCCCC[C@H]1CC[C@@H]2[C@H]3Cc4cccc(OCC(=O)O)c4C[C@H]3C[C@H]2OC(=O)O1 [XXIV] | Trep Concentration 0 min [4]: 0.892 µM; Trep Concentration 20 min [6]: 0.79 µM; Trep Concentration 30 min [6]: 0.802 µM; Trep Concentration 60 min [6]: 0.681 µM; Trep Concentration 0 min [7]: 0.326 µM; Trep Concentration 10 min [7]: 0.342 µM; Trep Concentration 20 min [7]: 0.341 µM; Trep Concentration 30 min [7]: 0.326 µM; Trep Concentration 60 min [7]: 0.23 µM; AUC [7]: 18.43 µmol·min/L; Trep Concentration (μM) 0 min [8]: 0.041 µM; Trep Concentration (μM) 15 min [8]: 0.228 µM; Trep Concentration (μM) 30 min [8]: 0.264 µM; Trep Concentration (μM) 60 min [8]: 0.312 µM; Trep Concentration (μM) 120 min [8]: 0.328 µM; AUC [8]: 33.55 µmol·min/L
